The results in this text go back to patent US20160310481A1, “LAQUINIMOD FOR TREATMENT OF CANNABINOID RECEPTOR TYPE 1(CB1) MEDIATED DISORDERS” (Teva Pharmaceutical Industries, Ltd., priority 2012, published 2016).

In test [1] the test system is glutamatergic transmission in control striatal neurons. Briefly: Bath application on corticostriatal slices of wild type mice: sEPSCs (basal glutamatergic transmission). Type of test: cell-based.
Test [2] addresses cannabinoid CB1 receptor (Mus musculus, UniProt P47746). As to conditions: HU210 1 μM.
Protocol: Recordings were performed between 25 and 35 dpi. Mice were killed by cervical dislocation under halothane anaesthesia, and corticostriatal coronal slices (200 μm) were prepared from fresh tissue blocks of the brain with the use of a vibratome (Centonze et al., 2007, 2009; Rossi et al., 2010a,b). A single slice was then transferred to a recording chamber and submerged in a continuously flowing artificial CSF (ACSF) (34° C., 2-3 ml/min) gassed with 95% O2-5% CO2. The composition of the control ACSF was (in mM): 126 NaCl, 2.5 KCl, 1.2 MgCl2, 1.2 NaH2PO4, 2.4 CaCl2, 11 Glucose, 25 NaHCO3. Recording pipettes were advanced towards individual striatal cells in the slice under positive pressure and visual control (WinVision 2000, Delta Sistemi, Italy) and, on contact, tight GΩ seals were made by applying negative pressure. The membrane patch was then ruptured by suction and membrane current and potential monitored using an Axopatch 1D patch clamp amplifier (Axon Instruments, Foster City, Calif., USA). Whole-cell access resistances measured in voltage clamp were in the range of 5-20 MΩ. Whole-cell patch clamp recordings were made with borosilicate glass pipettes (1.8 mm o.d.; 2-3 MΩ), in voltage-clamp mode, at the holding potential (HP) of −80 mV. […] Synaptic events were stored by using P-CLAMP (Axon Instruments) and analyzed off line on a personal computer with Mini Analysis 5.1 (Synaptosoft, Leonia, N.J., USA) software. […] Offline analysis was performed on spontaneous and miniature synaptic events recorded during fixed time epochs (3-5 min, 3-6 samplings), sampled every 5 or 10 minutes. […]
For data presented as mean ±SE, n indicates the number of cells. One to six cells per animal were recorded. […] Multiple comparisons were analysed by one-way ANOVA followed by Tukey's HSD test. Comparisons between two groups were analysed by paired or unpaired Student's t-test. […]
Test [3] has as its system EAE mice. Briefly: EAE induction and disease evaluation, preventive daily s.c. LQ treatment. Particulars: preventive treatment 0-26 dpi, daily s.c. 1-25 mg/kg. Type of test: in vivo, C57BL/6 mice. The protocol: Female C57BL/6 mice at 6-8 weeks of age were purchased from Charles River (Calco, Milan, Italy) and housed in pathogen-free conditions. All procedures involving animals were performed according to the guidelines of the San Raffaele Scientific Institute Institutional Animal Care and Use Committee.
EAE was induced by immunization with 3 subcutaneous injection of 100 μl each, containing a total of 200 μg of myelin oligodendrocyte glycoprotein (MOG) peptide 35-55 (Multiple Peptide System) in incomplete Freund's adjuvant and 8 mg/ml of Mycobacterium tuberculosis (strain H37Ra; Difco). Pertussis toxin (Sigma) (500 ng) was injected on the day of the immunization and again two days later. Body weight and clinical score (0=healthy; 1=limp tail; 2=ataxia and/or paresis of hindlimbs; 3=paralysis of hindlimbs and/or paresis of forelimbs; 4=tetraparalysis; 5=moribund or death) were recorded daily.
EAE mice were treated once daily by subcutaneous (s.c.) injection of LQ (supplied by Teva Pharmaceutical Industries, Netanya, Israel) (thereafter referred as LQ-EAE). LQ was administered at different doses (from 1 to 25 mg/kg) starting the same day of immunization up to 26 days post immunization (d.p.i.). Sham treated EAE mice (thereafter referred as untreated-EAE) and healthy control mice (thereafter referred as HC) were used as controls. […]

For test [4], the system named is spinal cord of EAE mice. Briefly: Histological evaluation of spinal cord of EAE mice. Type of test: in vivo, C57BL/6 mice. The protocol:
At least 5 mice per group were transcardially perfused through the left cardiac ventricle with saline, plus EDTA 0.5 M for 5-10 min followed by fixation with cold 4% paraformaldehyde (PFA) (Sigma, St Louis, Mo.) in 0.1 M phosphate buffer (pH 7.4). Subsequently, spinal cords and brains were carefully dissected out and post-fixed in 4% PFA for 3-4 h and processed for paraffin embedding. The quantification of neurological damage was performed on 5 µm paraffin CNS sections obtained from HC, LQ-EAE mice, and untreated-EAE mice. Three different staining were used to detect inflammatory infiltrates (H&E), demyelination (Luxol fast blue) and axonal damage (Bielshowsky). Imunohistochemistry for CD3 (pan-T cell marker, Serotec Ltd, Oxford, UK), and BS-I isolectin B4 (biotinilated from Sigma, St Louis, Mo.) was performed to investigate T cells and macrophages within the inflammatory cellular infiltrates, respectively. […] Neuropathological findings were quantified on an average of 18-20 complete cross-sections of spinal cord per mouse taken at 8 different levels of the spinal cord. The number of perivascular inflammatory infiltrates were calculated and expressed as the numbers of inflammatory infiltrates per mm^2, demyelinated areas and axonal loss were expressed as percentage of damaged area per mm2. The number of T cells and macrophages lining within the subarachnoid space or infiltrating the CNS parenchyma was calculated and expressed as the number of cells per mm2. An Olympus microscope for the acquisitions of pictures was used. Statistical analysis was performed using the unpaired Student's t-test.

The test system of test [5] is striatal glutamatergic transmission. Briefly: Whole-cell patch clamp of striatal neurons from EAE mice: glutamate-mediated sEPSCs. Type of test: in vivo. As to conditions: LQ-EAE mice 25 mg/kg, n=20; untreated-EAE 4.0±0.2, HC 2.7±0.2. Background: Patch clamp records ionic current or voltage across a cell membrane.
Test [6] has as its system GABAergic transmission in control striatal neurons. Briefly: Bath application on corticostriatal slices of wild type mice: sIPSCs (basal GABAergic transmission). Type of test: cell-based.
In test [7] the test system is rat model of ADHD. Briefly: Rat model of ADHD. The test is classed as in vivo. Particulars: compared to control rats. As for the experimental part:
Laqunimod is tested in a rat model of ADHD.

Test [8] has as its system DAT-CI mice. Briefly: Mouse model of ADHD (DAT-CI mice). Type of test: in vivo. From the text:
DAT cocaine-insensitive (DAT-CI) mice have a triple point-mutation in the cocaine-binding site of the dopamine […] (DAT) gene. The behavior of DAT-CI mice mimics human ADHD behavior. As previously described, the sensitivity of CB1 receptors controlling GABA-mediated synaptic currents in the striatum of DAT-CI mice was completely lost. ([…] et al., 2011).

Test [9] has as its system human subjects diagnosed with ADHD. Briefly: Human ADHD trial. Type of test: in vivo. Particulars: compared to the control group. As for the experimental part:
Laquinimod is administered to human subjects diagnosed with ADHD.

Where [10] appears, read: LQ-EAE vs control, dose dependent.
Where [11] appears, read: LQ 1 μM, 12 minutes, compared to pre-drug values, first mention.
Setting [12] is: LQ 1 μM bath application, control neurons.
Where [13] appears, read: LQ 1 μM, 12 minutes, control neurons, compared to pre-drug values, second mention.

Read-outs that look alike come from different tables or passages of the source.

Sequence of cannabinoid CB1 receptor (P47746 whole entry): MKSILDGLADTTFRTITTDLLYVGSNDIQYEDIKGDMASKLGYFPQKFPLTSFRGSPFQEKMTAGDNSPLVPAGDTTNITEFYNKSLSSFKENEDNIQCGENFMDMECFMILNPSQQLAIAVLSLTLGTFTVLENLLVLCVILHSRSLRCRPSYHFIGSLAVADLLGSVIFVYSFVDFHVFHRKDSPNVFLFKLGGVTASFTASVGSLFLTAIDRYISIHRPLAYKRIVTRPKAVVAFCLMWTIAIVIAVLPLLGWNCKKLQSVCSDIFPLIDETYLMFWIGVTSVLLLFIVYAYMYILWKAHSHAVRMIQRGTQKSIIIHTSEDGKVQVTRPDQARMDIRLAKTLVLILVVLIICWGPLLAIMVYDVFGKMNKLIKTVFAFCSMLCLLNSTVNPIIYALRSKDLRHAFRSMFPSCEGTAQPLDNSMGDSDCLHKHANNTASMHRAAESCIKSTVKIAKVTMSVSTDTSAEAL

In the case of `N#Cc1cc2[nH]c(=O)c(=O)[nH]c2cc1[N+](=O)[O-]` [CNQX], in test [1] (recorded in the presence of LQ, n=5, CNQX 10 μM), the “blockade of sEPSCs” value is “fully blocked”.
Turning to `CCCCCCC(C)(C)c1cc(O)c2c(c1)OC(C)(C)[C@@H]1CC=C(CO)C[C@@H]21` [HU210], the “sIPSC frequency during HU210, respect to pre-drug values” in test [2] (control slices, 10 min, n=8) worked out at 76±3%; in test [2] (striatal neurons from untreated EAE mice, n=10), 101±3%.
In the case of `CCN(C(=O)c1c(O)c2c(Cl)cccc2n(C)c1=O)c1ccccc1` [LQ, N-ethyl-N-phenyl-1,2-dihydro-4-hydroxy-5-chloro-1-methyl-2-oxoquinoline-3-carboxamide], the “effect on EAE clinical course” value in test [3] is on record as “significantly suppresses EAE in a dose-dependent manner”. In [4] (setting [10]), the Demyelination entry is reported as “reduced” and the axonal loss result was “reduced”. Moreover, in [4] (LQ-EAE vs untreated-EAE mice), the “number of T lymphocytes (CD3+) in cellular infiltrates” value is on record as “diminished number”, the “number of microglia/macrophages (Isolectin B4+) in cellular infiltrates” value is given as “diminished number” and the “numbers of infiltrates within spinal cord sections” value is “reduction in numbers of infiltrates”. Further, the “frequency of sEPSCs” value in test [5] turned out to be 3.4±0.4 Hz. Moreover, in test [6] (LQ 1 μM bath application), the “amplitude of sIPSCs” value is reported as “failed to alter” and the “frequency of sIPSCs” value is reported as “failed to alter”. Besides, in test [6] (setting [11]), the sIPSC decay time worked out at 98±3% and the sIPSC rise time came to 101±2%. In [1] (setting [12]), the “amplitude of sEPSCs” value is recorded as “failed to alter” and the “frequency of sEPSCs” value is recorded as “failed to alter”. In [1] (setting [13]), the sIPSC decay time came to 101±2% and the sIPSC rise time is 99±1%. Besides, in test [1] (LQ 10-30 μM bath application, control neurons, n=10), the sEPSC amplitude entry is given as “reducing sEPSC amplitude”. In addition, the “frequency of sEPSCs, respect to pre-drug values” in [1] (highest concentration of LQ, n=7) is 83±2.7%. In addition, the “result in rat model of ADHD” value in test [7] was “positive results”. In addition, the “sensitivity of CB1 receptors to CB1 receptor agonist HU210” value in test [8] (DAT-CI mice) is listed as “restored sensitivity”. The locomotor activity entry in [8] (DAT-CI mice compared to control mice) is on record as “decreased locomotor activity”. For the same molecule, the “result in human ADHD subjects” value in test [9] was “alleviation of inattention, hyperactivity or impulsivity”. The “sIPSC frequency during HU210, respect to pre-drug values” in test [2] (striatal neurons from LQ-EAE mice (25 mg/kg), n=10) is recorded as 75±3%.
